What was measured:
[1] = target: PDE (type III) enzyme (obtained from cat heart homogenate); assay: Inhibition of phosphodiesterase (PDE) (type III); format: biochemical; conditions: 1 µM cAMP, read-out: IC₅₀
Method: Inhibition of Phosphodiesterase (PDE) (Type III)
Following the procedure described in EPA-247,724, IC₅₀ values (the concentration of inhibitor required for 50% inhibition of enzyme activity) were obtained by incubation of a PDE (type III) enzyme (obtained from cat heart homogenate) at 1 µM cAMP and a range of inhibitor concentrations from 0.1 x IC₅₀ to 100 x IC₅₀.

Anaesthetised Cats = assay: Cardiac stimulant activity in vivo (anaesthetised cats); conditions: anaesthetised cats pretreated with pempidine and propranolol, administered intravenously; for ED50: Felis catus, iv, read-out: ED₅₀ (dose to increase left ventricular dp/dt max by 50%)
Text: Cardiac Stimulant Activity - In vivo (Anaesthetised Cats)
In anaesthetised cats pretreated with a ganglion blocker (pempidine) and propranolol, the compounds of the Examples cause sustained increases in left ventricular dp/dt max (this is an index of left ventricular contractility) when administered intravenously. The dose to increase left ventricular dp/dt max by 50% is given as the ED₅₀.

| Compound | IC50 [1] | ED50 (Anaesthetised Cats) | ED₅₀ (dose to increase left ventricular dp/dt max by 50%) (Anaesthetised Cats) |
| --- | --- | --- | --- |
| Cc1nccn1-c1ccc2c(c1)CC1SC(=O)NN=C21 (centres unmarked) [Example 1, 7-(2-Methyl-1H-imidazol-1-yl)-9,9a-dihydroindeno[1,2-e][1,3,4]thiadiazine-2-(3H)-one] | 660 nM | 0.72 µmol/kg |  |
| Cc1cn(-c2ccc3c(c2)CC2SC(=O)NN=C32)cn1 (centres unmarked) [Example 2, 7-(4-Methyl-1H-imidazol-1-yl)-9,9a-dihydroindeno[1,2-e][1,3,4] thiadiazine-2-(3H)-one] | 410 nM | 0.46 µmol/kg |  |
| Amirone [reference compound] |  |  | 5.6 µmol/kg |
